Laboratory results from patent publication US6552196B2, “Quinolone carboxylic acid derivatives” (Dong Wha Pharmaceutical Industrial Co., Ltd., priority 1997, dated 2003).
≈ marks a conversion by molar mass, not a printed value.

Experiments:
Type in all cases: cell-based
[1] = test system: Staphylococcus aureus 8236; experiment: In vitro antibacterial activity against resistant strains (MIC); details: resistant strain Staphylococcus aureus 8236; 2-fold agar dilution; methicillin resistant strains 48 hours at 30° C.; read-out: minimum inhibitory concentration (MIC)
Description: (§1) 10^7 cfu/ml of bacteria were inoculated and cultured for 18 hours at 37° C. and then the antibacterial activities were measured. For the methicillin resistant strains the activities were measured after 48 hours of cultivation at 30° C. Hoechst Standard strains were used for the testings.

[2] = test system: Staphylococcus aureus 256E; experiment: as above; details: resistant strain Staphylococcus aureus 256E; 2-fold agar dilution; methicillin resistant strains 48 hours at 30° C.; read-out: minimum inhibitory concentration (MIC)
Description: as §1

[3] = test system: Staphylococcus aureus 697E; experiment: as above; details: resistant strain Staphylococcus aureus 697E; 2-fold agar dilution; methicillin resistant strains 48 hours at 30° C.; read-out: minimum inhibitory concentration (MIC)
Description: as §1

[4] = test system: Staphylococcus aureus 88E; experiment: as above; details: resistant strain Staphylococcus aureus 88E; 2-fold agar dilution; methicillin resistant strains 48 hours at 30° C.; read-out: minimum inhibitory concentration (MIC)
Description: as §1

[5] = test system: Staphylococcus aureus 701E; experiment: as above; details: resistant strain Staphylococcus aureus 701E; 2-fold agar dilution; methicillin resistant strains 48 hours at 30° C.; read-out: minimum inhibitory concentration (MIC)
Description: as §1

[6] = test system: Staphylococcus aureus 293; experiment: as above; details: resistant strain Staphylococcus aureus 293; 2-fold agar dilution; methicillin resistant strains 48 hours at 30° C.; read-out: minimum inhibitory concentration (MIC)
Description: as §1

[7] = test system: Staphylococcus aureus 208E; experiment: as above; details: resistant strain Staphylococcus aureus 208E; 2-fold agar dilution; methicillin resistant strains 48 hours at 30° C.; read-out: minimum inhibitory concentration (MIC)
Description: as §1

[8] = test system: Staphylococcus aureus 703E; experiment: as above; details: resistant strain Staphylococcus aureus 703E; 2-fold agar dilution; methicillin resistant strains 48 hours at 30° C.; read-out: minimum inhibitory concentration (MIC)
Description: as §1

[9] = test system: Staphylococcus aureus 694E; experiment: as above; details: resistant strain Staphylococcus aureus 694E; 2-fold agar dilution; methicillin resistant strains 48 hours at 30° C.; read-out: minimum inhibitory concentration (MIC)
Description: as §1

[10] = test system: Staphylococcus epidermidis 178; experiment: as above; details: resistant strain Staphylococcus epidermidis 178; 2-fold agar dilution; methicillin resistant strains 48 hours at 30° C.; read-out: minimum inhibitory concentration (MIC)
Description: as §1

[11] = test system: Staphylococcus aureus 692E; experiment: as above; details: resistant strain Staphylococcus aureus 692E; 2-fold agar dilution; methicillin resistant strains 48 hours at 30° C.; read-out: minimum inhibitory concentration (MIC)
Description: as §1

[12] = test system: Staphylococcus aureus 121E; experiment: as above; details: resistant strain Staphylococcus aureus 121E; 2-fold agar dilution; methicillin resistant strains 48 hours at 30° C.; read-out: minimum inhibitory concentration (MIC)
Description: as §1

[13] = test system: Staphylococcus aureus 695E; experiment: as above; details: resistant strain Staphylococcus aureus 695E; 2-fold agar dilution; methicillin resistant strains 48 hours at 30° C.; read-out: minimum inhibitory concentration (MIC)
Description: as §1

[14] = test system: Staphylococcus aureus 241; experiment: as above; details: resistant strain Staphylococcus aureus 241; 2-fold agar dilution; methicillin resistant strains 48 hours at 30° C.; read-out: minimum inhibitory concentration (MIC)
Description: as §1

[15] = test system: Staphylococcus epidermidis 291; experiment: as above; details: resistant strain Staphylococcus epidermidis 291; 2-fold agar dilution; methicillin resistant strains 48 hours at 30° C.; read-out: minimum inhibitory concentration (MIC)
Description: as §1

[16] = test system: Staphylococcus aureus 693E; experiment: as above; details: resistant strain Staphylococcus aureus 693E; 2-fold agar dilution; methicillin resistant strains 48 hours at 30° C.; read-out: minimum inhibitory concentration (MIC)
Description: as §1

[17] = test system: Staphylococcus aureus 690E; experiment: as above; details: resistant strain Staphylococcus aureus 690E; 2-fold agar dilution; methicillin resistant strains 48 hours at 30° C.; read-out: minimum inhibitory concentration (MIC)
Description: as §1

[18] = test system: Staphylococcus aureus 303; experiment: as above; details: resistant strain Staphylococcus aureus 303; 2-fold agar dilution; methicillin resistant strains 48 hours at 30° C.; read-out: minimum inhibitory concentration (MIC)
Description: as §1

[19] = test system: Staphylococcus aureus 179; experiment: as above; details: resistant strain Staphylococcus aureus 179; 2-fold agar dilution; methicillin resistant strains 48 hours at 30° C.; read-out: minimum inhibitory concentration (MIC)
Description: as §1

[20] = test system: Pseudomonas aeruginosa 1592E; experiment: In vitro antibacterial activity (MIC), agar dilution; details: 2-fold agar dilution, Muller-Hinton agar, 18 hours at 37° C., read-out: minimum inhibitory concentration (MIC)
Description: as §1

[21] = test system: Enterobacter clocae 1321E; experiment: as above; details: 2-fold agar dilution, Muller-Hinton agar, 18 hours at 37° C., read-out: minimum inhibitory concentration (MIC)
Description: as §1

[22] = test system: Streptococcus pyogens 77A; experiment: as above; details: 2-fold agar dilution, Muller-Hinton agar, 18 hours at 37° C., read-out: minimum inhibitory concentration (MIC)
Description: as §1

[23] = test system: Klebsiella oxytoca 1082E; experiment: as above; details: 2-fold agar dilution, Muller-Hinton agar, 18 hours at 37° C., read-out: minimum inhibitory concentration (MIC)
Description: as §1

[24] = test system: Streptococcus pyogens 308A; experiment: as above; details: 2-fold agar dilution, Muller-Hinton agar, 18 hours at 37° C., read-out: minimum inhibitory concentration (MIC)
Description: as §1

[25] = test system: Salmonella typhimurium; experiment: as above; details: Salmonella enterica, 2-fold agar dilution, Muller-Hinton agar, 18 hours at 37° C., read-out: minimum inhibitory concentration (MIC)
Description: as §1

[26] = test system: Staphylococcus aureus SG511; experiment: as above; details: 2-fold agar dilution, Muller-Hinton agar, 18 hours at 37° C., read-out: minimum inhibitory concentration (MIC)
Description: as §1

[27] = test system: Esherichia coli DC0; experiment: as above; details: 2-fold agar dilution, Muller-Hinton agar, 18 hours at 37° C., read-out: minimum inhibitory concentration (MIC)
Description: as §1

[28] = test system: Staphylococcus aureus 503; experiment: as above; details: 2-fold agar dilution, Muller-Hinton agar, 18 hours at 37° C., read-out: minimum inhibitory concentration (MIC)
Description: as §1

[29] = test system: Klebsiella aerogenes 1522E; experiment: as above; details: 2-fold agar dilution, Muller-Hinton agar, 18 hours at 37° C., read-out: minimum inhibitory concentration (MIC)
Description: as §1

[30] = test system: Streptococcus faecium MD 8b; experiment: as above; details: Enterococcus faecium, MD8B, 2-fold agar dilution, Muller-Hinton agar, 18 hours at 37° C., read-out: minimum inhibitory concentration (MIC)
Description: as §1

[31] = test system: Pseudomonas aeruginosa 1771; experiment: as above; details: 2-fold agar dilution, Muller-Hinton agar, 18 hours at 37° C., read-out: minimum inhibitory concentration (MIC)
Description: as §1

[32] = test system: Esherichia coli TEM; experiment: as above; details: 2-fold agar dilution, Muller-Hinton agar, 18 hours at 37° C., read-out: minimum inhibitory concentration (MIC)
Description: as §1

[33] = test system: Pseudomonas aeruginosa 1771M; experiment: as above; details: Pseudomonas aeruginosa, 1771M, 18 h, read-out: minimum inhibitory concentration (MIC)
Description: as §1

[34] = test system: Enterobacter clocae P99; experiment: as above; details: 2-fold agar dilution, Muller-Hinton agar, 18 hours at 37° C., read-out: minimum inhibitory concentration (MIC)
Description: as §1

[35] = test system: Pseudomonas aeruginosa 9027; experiment: as above; details: 2-fold agar dilution, Muller-Hinton agar, 18 hours at 37° C., read-out: minimum inhibitory concentration (MIC)
Description: as §1

[36] = test system: Staphylococcus aureus 285; experiment: as above; details: 2-fold agar dilution, Muller-Hinton agar, 18 hours at 37° C., read-out: minimum inhibitory concentration (MIC)
Description: as §1

[37] = test system: Esherichia coli 078; experiment: as above; details: 2-fold agar dilution, Muller-Hinton agar, 18 hours at 37° C., read-out: minimum inhibitory concentration (MIC)
Description: as §1

[38] = test system: Esherichia coli 1507E; experiment: as above; details: 2-fold agar dilution, Muller-Hinton agar, 18 hours at 37° C., read-out: minimum inhibitory concentration (MIC)
Description: as §1

Structure (SMILES)	MIC [20] [µg/mL]	MIC [21] [µg/mL]	MIC [22] [µg/mL]	MIC [23] [µg/mL]	MIC [24] [µg/mL]	MIC [25] [µg/mL]	MIC [26] [µg/mL]	MIC [27] [µg/mL]	MIC [28] [µg/mL]	MIC [29] [µg/mL]	MIC [30] [µg/mL]	MIC [31] [µg/mL]	MIC [32] [µg/mL]	MIC [33] [µg/mL]	MIC [34] [µg/mL]	MIC [35] [µg/mL]	MIC [36] [µg/mL]	MIC [37] [µg/mL]	MIC [38] [µg/mL]	other results
CON=C1CN(c2nc3c(cc2F)c(=O)c(C(=O)O)cn3C2CC2)CC12CNC2.CS(=O)(=O)O [Example 1, 1-Cyclopropyl-6-fluoro-7-[8-(methoxyimino)-2,6-diazaspiro[3,4]oct-6-yl]-4-oxo-1,4-dihydro[1,8]naphthyridine-3-carboxylic acid methanesulfonate]	0.391	0.013	0.007	0.004	0.098	0.013	0.007	0.195	0.025	0.049	0.049	0.391	0.025	0.391	0.025	0.781	0.025	0.013	0.025	MIC [1]: 0.781 µg/mL; MIC [2]: 0.025 µg/mL; MIC [3]: 0.013 µg/mL; MIC [4]: 0.049 µg/mL; MIC [5]: 0.049 µg/mL; MIC [6]: 0.781 µg/mL; MIC [7]: 0.049 µg/mL; MIC [8]: 0.049 µg/mL; MIC [9]: 0.049 µg/mL; MIC [10]: 1.56 µg/mL; MIC [11]: 0.025 µg/mL; MIC [12]: 0.049 µg/mL; MIC [13]: 0.049 µg/mL; MIC [14]: 0.781 µg/mL; MIC [15]: 1.56 µg/mL; MIC [16]: 0.049 µg/mL; MIC [17]: 0.025 µg/mL; MIC [18]: 0.781 µg/mL; MIC [19]: 0.781 µg/mL
CON=C1CN(c2c(F)cc3c(=O)c(C(=O)O)cn(C4CC4)c3c2Cl)CC12CNC2 [Example 4, 1-Cyclopropyl-6-fluoro-8-chloro-7-[8-(methoxyimino)-2,6-diazaspiro[3,4]oct-6-yl]-4-oxo-1,4-dihydro-3-quinolinecarboxylic acid]	0.781 (≈ 1.8 µM)	0.025 (≈ 0.0575 µM)	0.013 (≈ 0.0299 µM)	0.004 (≈ 0.0092 µM)	0.195 (≈ 0.448 µM)	0.025 (≈ 0.0575 µM)	0.013 (≈ 0.0299 µM)	0.391 (≈ 0.899 µM)	0.025 (≈ 0.0575 µM)	0.098 (≈ 0.225 µM)	0.098 (≈ 0.225 µM)	0.781 (≈ 1.8 µM)	0.049 (≈ 0.113 µM)	0.391 (≈ 0.899 µM)	0.049 (≈ 0.113 µM)	0.781 (≈ 1.8 µM)	0.049 (≈ 0.113 µM)	0.025 (≈ 0.0575 µM)	0.049 (≈ 0.113 µM)	–
CON=C1CN(c2nc3c(cc2F)c(=O)c(C(=O)O)cn3-c2ccc(F)cc2F)CC12CNC2.CS(=O)(=O)O [Example 7, 1-(2,4-Difluorophenyl)-6-fluoro-7-[8-(methoxyimino)-2,6-diazaspiro[3,4]oct-6-yl]-4-oxo-1,4-dihydro-1,8-naphthyridine-3-carboxylic acid methane sulfonate]	1.56	0.049	0.013	0.013	0.195	0.049	0.013	0.781	0.025	0.195	0.098	1.56	0.098	0.781	0.098	1.56	0.049	0.049	0.195	–
CCON=C1CN(c2nc3c(cc2F)c(=O)c(C(=O)O)cn3C2CC2)CC12CNC2.CS(=O)(=O)O [Example 8, 1-Cyclopropyl-6-fluoro-7-[8-(ethoxyimino)-2,6-diazaspiro[3,4]oct-6-yl]-4-oxo-1,4-dihydro-1,8-naphthyridine-3-carboxylic acid methanesulfonate]	0.781	0.025	0.007	0.004	0.098	0.013	0.007	0.391	0.013	0.098	0.098	0.781	0.025	0.781	0.025	1.56	0.025	0.013	0.049	–
CON=C1CN(c2nc3c(cc2F)c(=O)c(C(=O)O)cn3C2CC2)CC12CN(C)C2 [Example 10, 1-Cyclopropyl-6-fluoro-7-[8-(methoxyimino)-2-methyl-2,6-diazaspiro[3,4]oct-6-yl]-4-oxo-1,4-dihydro-1,8-naphthyridine-3-carboxylic acid]	0.781 (≈ 1.88 µM)	0.025 (≈ 0.0602 µM)	0.013 (≈ 0.0313 µM)	0.007 (≈ 0.0169 µM)	0.098 (≈ 0.236 µM)	0.049 (≈ 0.118 µM)	0.013 (≈ 0.0313 µM)	0.391 (≈ 0.941 µM)	0.025 (≈ 0.0602 µM)	0.098 (≈ 0.236 µM)	0.098 (≈ 0.236 µM)	0.781 (≈ 1.88 µM)	0.049 (≈ 0.118 µM)	0.781 (≈ 1.88 µM)	0.049 (≈ 0.118 µM)	0.781 (≈ 1.88 µM)	0.049 (≈ 0.118 µM)	0.013 (≈ 0.0313 µM)	0.049 (≈ 0.118 µM)	–
